pIC50: −log10 of the molar value.
Assays:
[1] = Antiinflammatory in rat peritoneal mast cell assessed as inhibition of histamine release; type: functional, cell-based
[2] = Antiinflammatory in rat peritoneal mast cell assessed as inhibition of histamine release at 30 uM; type: functional; design: scale not given: the % may be the effect or the level left
PBMC = experiment: Inhibition of PMA or fMLP-induced human PBMC activation assessed as superoxide production at 30 uM; type: functional; design: scale not given: the % may be the effect or the level left

SMILES	pIC50 [1]	Activity [2]	Activity (PBMC)
CC(C)[C@@H]1CC(O)O[C@H](C(C)[C@H]2CC(=O)[C@H]3[C@@H]4[C@@H](O)[C@H](O)[C@H]5[C@@H](O)[C@H](O)CC[C@]5(C)[C@H]4CC[C@]23C)C1 (stereo partly drawn)	6.10	–	–
CC(C)C(CCC(C)[C@H]1CC(=O)[C@H]2[C@@H]3[C@@H](O)[C@H](O)[C@H]4C[C@@H](O)CC[C@]4(C)[C@H]3CC[C@]12C)C(C)O (stereo partly drawn)	–	72%	76%

From ChEMBL document CHEMBL1148128, “Clathriol, a novel polyoxygenated 14beta steroid isolated from the New Zealand marine sponge Clathria lissosclera” (J Nat Prod, 2002)
